The values below are quoted from earlier work in patent publication US9974685B2, “Drug delivery system and methods of treating open angle glaucoma and ocular hypertension” (Mati Therapeutics, Inc., priority 2011, dated 2018).

For one data set, the system named is cynomolgus monkeys. The settings on record: doses up to 50 μg/eye twice daily (100 μg/eye/day), 52 weeks, not judged to be deleterious.
The next data set concerns healthy volunteers. The settings on record: 28 healthy volunteers; 1 drop of 50 μg/mL 4 times daily for 2 weeks; resolved spontaneously without cessation of treatment.
A further data set relates to rabbits. The settings on record: twice-daily ocular instillation, doses up to 50 μg per eye for 52 weeks (100 μg/eye/day).

With `CC(C)OC(=O)CCC/C=C\C[C@@H]1[C@@H](CC[C@@H](O)CCc2ccccc2)[C@H](O)C[C@@H]1O` [Latanoprost, isopropyl-(Z)-7 [(1R,2R,3R,5S)3,5-dihydroxy-2-[(3R)-3-hydroxy-5-phenylpentyl]cyclopentyl]-5-heptenoate], the effects observed result with cynomolgus monkeys was “a reversible change in the aspect of the palpebral fissure and a non-reversible increase in iris pigmentation”. Also, the “ocular effects during the 4-dose regimen” value with healthy volunteers is “transient photophobia, cells, and mild flare were common”. Moreover, the adverse effects entry in the data set on rabbits was “no adverse effects”. The “solubility in organic solvents” value (acetone, ethanol, ethyl acetate, isopropanol, methanol and octanol) was “freely soluble”. Where the note is “acetonitrile”, the solubility in acetonitrile entry was “very soluble”. Further, the solubility in water entry (water) is “practically insoluble”.
